Results taken from ChEMBL document CHEMBL3044730, “Synthesis, antimycobacterial, antiviral, antimicrobial activities, and QSAR studies of nicotinic acid benzylidene hydrazide derivatives” (Med Chem Res, 2012).
In brackets after ≈: the same amount, converted by molar mass.

Experiments:
[1] = Cytotoxicity against Chlorocebus aethiops (African green monkey) Vero cells assessed as alteration in cell morphology by microscopy; type: cell-based; details: chlorocebus sabaeus
Punta Toro virus = assay: Antiviral activity against Punta Toro virus infected Vero cells assessed as inhibition of virus-induced cytopathicity; type: functional, organism-based
Coxsackievirus B4 [2] = assay: Antiviral activity against Human coxsackievirus B4 infected Vero cells assessed as inhibition of virus-induced cytopathicity; type: functional, organism-based; details: Enterovirus B
Sindbis virus = assay: Antiviral activity against Sindbis virus infected Vero cells assessed as inhibition of virus-induced cytopathicity; type: functional, organism-based
[3] = tested on: Mammalian orthoreovirus 1; assay: Antiviral activity against Mammalian orthoreovirus 1 infected Vero cells assessed as inhibition of virus-induced cytopathicity by microscopy; type: functional, organism-based; details: Mammalian orthoreovirus 1, Vero
Human respirovirus 3 = assay: Antiviral activity against Human parainfluenza virus 3 infected Vero cells assessed as inhibition of virus-induced cytopathicity by microscopy; type: functional, organism-based; details: Human respirovirus 3, Vero
[4] = Cytotoxicity against Homo sapiens (human) HeLa cells assessed as alteration in cell morphology by microscopy; type: cell-based
[5] = tested on: Respiratory syncytial virus; assay: Antiviral activity against Respiratory syncytial virus infected human HeLa cells assessed as inhibition of virus-induced cytopathicity by microscopy; type: functional, organism-based
Coxsackievirus B4 [6] = assay: Antiviral activity against Human coxsackievirus B4 infected human HeLa cells assessed as inhibition of virus-induced cytopathicity by microscopy; type: functional, organism-based; details: Enterovirus B
[7] = tested on: Vesicular stomatitis virus; assay: Antiviral activity against Vesicular stomatitis virus infected human HeLa cells assessed as inhibition of virus-induced cytopathicity by microscopy; type: functional, organism-based
[8] = Cytotoxicity against Homo sapiens (human) HEL cells assessed as alteration in cell morphology by microscopy; type: cell-based
[9] = tested on: Human herpesvirus 3 strain Oka vaccine; assay: Antiviral activity against Human herpesvirus 3 strain Oka vaccine OKA 07-1 (Varicella zoster virus) infected in human HEL cells assessed as inhibition of virus-induced cytopathicity; type: functional, organism-based; details: Human alphaherpesvirus 3, OKA 07-1, HEL
[10] = tested on: Human herpesvirus 5 strain AD169; assay: Antiviral activity against Human herpesvirus 5 strain AD169 Davis infected human HEL cells assessed as inhibition of virus-induced cytopathicity by microscopy; type: functional, organism-based; details: Human betaherpesvirus 5, Davis
Human alphaherpesvirus 1 [11] = assay: Antiviral activity against TK(-) aciclovir-resistant Human herpesvirus 1 strain KOS infected in human HEL cells assessed as inhibition of virus-induced cytopathicity; type: functional, organism-based; details: Human alphaherpesvirus 1, KOS
Human alphaherpesvirus 2 = assay: Antiviral activity against Human herpesvirus 2 strain G infected human HEL cells assessed as inhibition of virus-induced cytopathicity by microscopy; type: functional, organism-based; details: Human alphaherpesvirus 2, strain G
Vaccinia virus = assay: Antiviral activity against Vaccinia virus infected human HEL cells assessed as inhibition of virus-induced cytopathicity by microscopy; type: functional, organism-based; details: Orthopoxvirus vaccinia
[12] = Cytotoxicity against Homo sapiens (human) MT4 cells after 4 days by MTT assay; type: cell-based
Human alphaherpesvirus 1 [13] = assay: Antiviral activity against Human herpesvirus 1 strain KOS infected in human HEL cells assessed as inhibition of virus-induced cytopathicity by microscopy by microscopy; type: functional, organism-based; details: Human alphaherpesvirus 1, KOS
[14] = tested on: Human immunodeficiency virus 2; assay: Antiviral activity against Human immunodeficiency virus type 2 (ISOLATE ROD) infected MT4 cells assessed as inhibition of virus-induced cytopathic effect after 4 days by MTT assay; type: functional, organism-based; details: Human immunodeficiency virus 2, ISOLATE ROD, MT4, 96 h
[15] = tested on: Human immunodeficiency virus 1; assay: Antiviral activity against Human immunodeficiency virus 1 IIIB infected MT4 cells assessed as inhibition of virus-induced cytopathic effect after 4 days by MTT assay; type: functional, organism-based; details: MT4, 96 h
Candida albicans [16] = assay: Antimicrobial activity against Candida albicans after 2 days by serial dilution method; type: functional; parameters: unit not given here
Candida albicans [17] = assay: Antimicrobial activity against Candida albicans after 7 days by serial dilution method; type: functional; parameters: unit not given here
Escherichia coli = assay: Antimicrobial activity against Escherichia coli after 24 hr by serial dilution method; type: functional; parameters: unit not given here
Staphylococcus aureus = assay: Antimicrobial activity against Staphylococcus aureus after 24 hr by serial dilution method; type: functional; parameters: unit not given here
Bacillus subtilis = assay: Antimicrobial activity against Bacillus subtilis after 24 hr by serial dilution method; type: functional; parameters: unit not given here
[18] = tested on: Mycobacterium tuberculosis; assay: Antimicrobial activity against Mycobacterium tuberculosis by agar dilution method; type: functional

Structure (SMILES): O=C(N/N=C/c1ccc(F)cc1)c1cccnc1
- MCC [1]: > 100 µg/mL
- EC50 (Punta Toro virus): > 100 µg/mL
- EC50 (Coxsackievirus B4 [2]): > 100 µg/mL
- EC50 (Sindbis virus): > 100 µg/mL
- EC50 [3]: > 100 µg/mL
- EC50 (Human respirovirus 3): > 100 µg/mL
- MCC [4]: > 100 µg/mL
- EC50 [5]: > 100 µg/mL
- EC50 (Coxsackievirus B4 [6]): > 100 µg/mL
- EC50 [7]: > 100 µg/mL
- CC50 [8]: > 100 µg/mL
- MCC [8]: > 100 µg/mL
- EC50 [9]: > 100 µg/mL
- EC50 [10]: > 100 µg/mL
- EC50 (Human alphaherpesvirus 1 [11]): > 100 µg/mL
- EC50 (Human alphaherpesvirus 2): > 100 µg/mL
- EC50 (Vaccinia virus): > 100 µg/mL
- CC50 at 96 h [12]: > 125 µg/mL
- EC50 (Human alphaherpesvirus 1 [13]): > 100 µg/mL
- EC50 [14]: > 125 µg/mL
- EC50 [15]: > 125 µg/mL
- -logMIC (Candida albicans [16]): 1.29
- -logMIC (Candida albicans [17]): 1.59
- -logMIC (Escherichia coli): 1.29
- -logMIC (Staphylococcus aureus): 1.29
- -logMIC (Bacillus subtilis): 1.29
- MIC [18]: 25 µg/mL (≈ 103 µM)

Structure (SMILES): CCOc1cc(/C=N/NC(=O)c2cccnc2)ccc1O
- MCC [1]: > 100 µg/mL
- EC50 (Punta Toro virus): > 100 µg/mL
- EC50 (Coxsackievirus B4 [2]): > 100 µg/mL
- EC50 (Sindbis virus): > 100 µg/mL
- EC50 [3]: > 100 µg/mL
- EC50 (Human respirovirus 3): > 100 µg/mL
- MCC [4]: > 100 µg/mL
- EC50 [5]: > 100 µg/mL
- EC50 (Coxsackievirus B4 [6]): > 100 µg/mL
- EC50 [7]: > 100 µg/mL
- CC50 [8]: 63 µg/mL (≈ 221 µM)
- MCC [8]: 100 µg/mL
- EC50 [9]: > 70 µg/mL
- EC50 [10]: > 20 µg/mL
- EC50 (Human alphaherpesvirus 1 [11]): > 20 µg/mL
- EC50 (Human alphaherpesvirus 2): > 20 µg/mL
- EC50 (Vaccinia virus): > 20 µg/mL
- CC50 at 96 h [12]: ≥ 117 µg/mL
- EC50 (Human alphaherpesvirus 1 [13]): > 20 µg/mL
- EC50 [14]: > 117 µg/mL
- EC50 [15]: > 117 µg/mL
- -logMIC (Candida albicans [16]): 1.36
- -logMIC (Candida albicans [17]): 1.96
- -logMIC (Escherichia coli): 1.06
- -logMIC (Staphylococcus aureus): 1.36
- -logMIC (Bacillus subtilis): 1.36
- MIC [18]: > 25 µg/mL

Structure (SMILES): O=C(N/N=C/c1ccccc1Cl)c1cccnc1
- MCC [1]: > 100 µg/mL
- EC50 (Punta Toro virus): > 100 µg/mL
- EC50 (Coxsackievirus B4 [2]): > 100 µg/mL
- EC50 (Sindbis virus): > 100 µg/mL
- EC50 [3]: > 100 µg/mL
- EC50 (Human respirovirus 3): > 100 µg/mL
- MCC [4]: 100 µg/mL
- EC50 [5]: > 20 µg/mL
- EC50 (Coxsackievirus B4 [6]): > 20 µg/mL
- EC50 [7]: > 20 µg/mL
- CC50 [8]: 12 µg/mL (≈ 46.2 µM)
- MCC [8]: > 100 µg/mL
- EC50 [9]: > 100 µg/mL
- EC50 [10]: > 100 µg/mL
- EC50 (Human alphaherpesvirus 1 [11]): > 100 µg/mL
- EC50 (Human alphaherpesvirus 2): > 100 µg/mL
- EC50 (Vaccinia virus): > 100 µg/mL
- CC50 at 96 h [12]: ≥ 0.57 µg/mL
- EC50 (Human alphaherpesvirus 1 [13]): > 100 µg/mL
- EC50 [14]: > 0.57 µg/mL
- EC50 [15]: > 0.57 µg/mL
- -logMIC (Candida albicans [16]): 1.32
- -logMIC (Candida albicans [17]): 1.32
- -logMIC (Escherichia coli): 1.02
- -logMIC (Staphylococcus aureus): 1.32
- -logMIC (Bacillus subtilis): 1.02
- MIC [18]: > 25 µg/mL

Structure (SMILES): O=C(N/N=C/c1ccc(Br)cc1)c1cccnc1
- MCC [1]: > 100 µg/mL
- EC50 (Punta Toro virus): > 100 µg/mL
- EC50 (Coxsackievirus B4 [2]): > 100 µg/mL
- EC50 (Sindbis virus): > 100 µg/mL
- EC50 [3]: > 100 µg/mL
- EC50 (Human respirovirus 3): > 100 µg/mL
- MCC [4]: > 100 µg/mL
- EC50 [5]: > 100 µg/mL
- EC50 (Coxsackievirus B4 [6]): > 100 µg/mL
- EC50 [7]: > 100 µg/mL
- CC50 [8]: 48 µg/mL (≈ 158 µM)
- MCC [8]: > 100 µg/mL
- EC50 [9]: > 100 µg/mL
- EC50 [10]: > 100 µg/mL
- EC50 (Human alphaherpesvirus 1 [11]): > 100 µg/mL
- EC50 (Human alphaherpesvirus 2): > 100 µg/mL
- EC50 (Vaccinia virus): > 100 µg/mL
- CC50 at 96 h [12]: 61 µg/mL (≈ 201 µM)
- EC50 (Human alphaherpesvirus 1 [13]): > 100 µg/mL
- EC50 [14]: > 61 µg/mL
- EC50 [15]: > 61 µg/mL
- -logMIC (Candida albicans [16]): 1.39
- -logMIC (Candida albicans [17]): 1.39
- -logMIC (Escherichia coli): 1.39
- -logMIC (Staphylococcus aureus): 1.09
- -logMIC (Bacillus subtilis): 1.39
- MIC [18]: 25 µg/mL (≈ 82.2 µM)

Structure (SMILES): O=C(N/N=C/c1cccc(Cl)c1)c1cccnc1
- MCC [1]: > 100 µg/mL
- EC50 (Punta Toro virus): > 100 µg/mL
- EC50 (Coxsackievirus B4 [2]): > 100 µg/mL
- EC50 (Sindbis virus): > 100 µg/mL
- EC50 [3]: 34 µg/mL (≈ 131 µM)
- EC50 (Human respirovirus 3): > 100 µg/mL
- MCC [4]: > 100 µg/mL
- EC50 [5]: > 100 µg/mL
- EC50 (Coxsackievirus B4 [6]): > 100 µg/mL
- EC50 [7]: > 100 µg/mL
- CC50 [8]: 53 µg/mL (≈ 204 µM)
- MCC [8]: > 100 µg/mL
- EC50 [9]: > 100 µg/mL
- EC50 [10]: > 100 µg/mL
- EC50 (Human alphaherpesvirus 1 [11]): > 100 µg/mL
- EC50 (Human alphaherpesvirus 2): > 100 µg/mL
- EC50 (Vaccinia virus): > 100 µg/mL
- CC50 at 96 h [12]: 62 µg/mL (≈ 239 µM)
- EC50 (Human alphaherpesvirus 1 [13]): > 100 µg/mL
- EC50 [14]: > 62 µg/mL
- EC50 [15]: > 62 µg/mL
- -logMIC (Candida albicans [16]): 1.32
- -logMIC (Candida albicans [17]): 1.92
- -logMIC (Escherichia coli): 1.02
- -logMIC (Staphylococcus aureus): 1.32
- -logMIC (Bacillus subtilis): 1.02
- MIC [18]: > 25 µg/mL
